For 12 molecules, TGI results are on record in PubChem BioAssay (NCI).

As a reminder, the TGI is the concentration giving total growth inhibition. Higher therefore signals less potent growth arrest.

What all share (assay): DTP human tumour cell line panel, 48 h
The test system of test [1] is NCI/ADR-RES ovarian.
Test [2] has as its system MDA-N.
In test [3] the test system is HOP-62 NSCLC.
In test [4] the test system is OVCAR-8 ovarian.
In test [5] the test system is T-47D breast.
Test [6] concerns SF-268 CNS.
In test [7] the test system is MALME-3M melanoma.
Test [8] relates to MDA-MB-435.
Test [9] deals with U251 CNS.
The test system of test [10] is MDA-MB-231 breast.

Structures are written as SMILES.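 1) Cells in 96-well plates. 2) Compound, 48 h, 5 concentrations. 3) Linear interpolation between surrounding doses. 4) Unreached endpoint = highest concentration. At the TGI there is no net growth.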 Where only a bound is given, the exact number is not on record here.

For the molecule `NC1=CC(=O)c2c(O)ccc(O)c2C1=O`, the TGI in test [1] is 68.2 µM; in test [2], 13.1 µM; in test [3] it was 64.9 µM; in test [4], 33 µM; in test [5] it was 35.7 µM; in test [6], > 70.1 µM. The TGI stood at 7.08 µM in [7], 31.6 µM in [8], 33.9 µM in test [9] and 38.5 µM in test [10].
Take `CCCCCCN(CCCCCC)C(=S)N/N=C(\C)c1ccccn1`: the TGI in test [1] stood at 4.27 µM; in test [2] it was 5.56 µM; in test [3], 3.32 µM; in [4], 3.38 µM; in test [5] it was 1.91 µM; in test [6] it was 3.52 µM. Moreover, the TGI in test [7] came out at 3.17 µM; in [8], 3.7 µM; in test [9], 1.71 µM; in test [10] it was 2.76 µM.
As for `[N-]=[N+]=CC(=O)C1CCCN1C(=O)c1ccccc1` (stereo not given), the TGI in test [1], in [2], in test [3], in [4], in [5] and in [6] was > 10 µM in each case. Besides, the TGI in [7], in test [8], in [9] and in [10] was > 10 µM each time.
As to `COc1ccc(C)cc1N1C(=O)C2ON(Cc3ccc(CC(N)=O)cc3)C(c3c4ccccc4c(Cl)c4ccccc34)C2C1=O` (stereo not given), the TGI in test [1] was 76.9 µM; in test [2], 33 µM; in test [3], 93.7 µM; in [4] it was 84.6 µM; in test [5], > 100 µM; in test [6] it was 82.3 µM. The total growth inhibition concentration (TGI) in test [7] is > 100 µM; in test [8], 62.1 µM; in test [9], 60.4 µM; in [10], 49 µM.
On to `O=C(COc1ccc(OCC(=O)N/N=C/c2ccc(-c3ccc(Cl)cc3Cl)o2)c(Cl)c1)N/N=C/c1ccc(-c2ccc(Cl)cc2Cl)o1`, for which the TGI in [1], in test [2], in [3], in test [4], in test [5] and in test [6] was > 100 µM each time. Moreover, the TGI in [7], in test [8], in test [9] and in test [10] was > 100 µM throughout.
Consider `COc1ccc2nc(NC(=O)/C(C#N)=C/c3ccccc3)sc2c1`, for which the total growth inhibition concentration (TGI) in [1] was > 69.6 µM; in test [2], > 100 µM; in [3] it was > 100 µM; in [4], > 100 µM; in test [5], > 100 µM; in test [6], > 100 µM. Besides, the TGI in test [7], in test [8], in test [9] and in test [10] was > 100 µM in each case.
`O=c1oc2ccc3ccccc3c2cc1-c1cn2ccsc2n1`: the total growth inhibition concentration (TGI) in test [1] was 96.2 µM; in [2], 46.3 µM; in test [3], > 100 µM; in test [4], 41.2 µM; in [5] it was 57.6 µM; in test [6], 56.3 µM. Further, the TGI in test [7] is 41.1 µM; in test [8], 46 µM; in test [9] it was > 100 µM; in test [10] it was 57.4 µM.
As for `CCOC(=O)CSc1nc(N)c2c(-c3ccccc3)c3c(nc2n1)CCCC3`, the TGI in test [1], in test [2], in [3], in test [4], in [5] and in test [6] was > 100 µM in each case. For the same molecule, the TGI in [7], in [8], in test [9] and in [10] was > 100 µM each time.
For `COc1ccc(N=Nc2c(-c3c(OC)cc4occc4c3OC)[nH]c(=O)c(C#N)c2C)cc1`, the TGI in test [1], in test [2], in test [3], in test [4], in test [5] and in [6] was > 100 µM throughout. Also, the TGI in test [7], in test [8], in test [9] and in [10] was > 100 µM throughout.
For `S=C(Cc1ccc2c(c1)Sc1ccccc1O2)N1CCOCC1`, the TGI in [1], in [2], in test [3], in test [4], in test [5] and in test [6] was > 100 µM each time. Besides, the concentration for total growth inhibition (TGI) was 90.2 µM in test [7], > 100 µM in test [8], > 100 µM in [9] and > 100 µM in test [10].
Turning to `Cc1nc(N)c(N2CCN(C#N)CC2)c(=O)[nH]1`, the TGI in [1], in [2], in test [3], in test [4], in [5] and in test [6] was > 100 µM in each case. Further, the TGI in test [7], in test [8], in [9] and in [10] was > 100 µM throughout.
For `COC(=O)/C=C(/C=C1/C(C#N)=C(N)N(c2ccc(Cl)cc2)C1(C)/C(=C\C(=O)OC)C(=O)OC)C(=O)OC` (stereo not given), the TGI is 36.9 µM in test [1]; 30.8 µM in test [2]; > 100 µM in test [3]; 33.7 µM in test [4]; 39.5 µM in [5]; 47.8 µM in test [6]. Further, the total growth inhibition concentration (TGI) turned out to be 58.8 µM in test [7], 41 µM in test [8], 60.2 µM in [9] and 53.4 µM in [10].
